Measurements as given in patent US20130040978A1 (priority 2010, published 2013).

What was measured:
[1] = molecular target: T1, SSTR5 (Homo sapiens, UniProt P35346); test: Functional assay of inhibition of SSTR5 mediated cyclic AMP production in SSTR5 expressing CHO cells; type: cell-based, human; settings: forskolin (FSK) plus SS-28, read-out: cAMP IC50
[2] = molecular target: T1, SSTR5; test: SSTR5 receptor-ligand binding assay, CHO-K1 cell membranes, 125I-SRIF radioligand; design: expressed in transfected cells; settings: Table 4, read-out: Bnd IC50
Protocol: The receptor-ligand binding assays of all 5 subtype of SSTRs were performed with membranes isolated from Chinese hamster ovary (CHO)-K1 cells stably expressing the cloned human somatostatin receptors in 96-well format as previous reported. (Yang et al. PNAS 95:10836-10841, (1998), Birzin et al. Anal. Biochem. 307:159-166, (2002)).
The stable cell lines for SSTR1-SSTR5 were developed by stably transfecting with DNA for all five SSTRs using Lipofectamine. Neomycin-resistant clones were selected and maintained in medium containing 400 μg/mL G418 (Rohrer et al. Science 282:737-740, (1998)). Binding assays were performed using (3-125I-Tyr11)-SRIF-14 or (3-125I-Tyrl 1)-SRIF-28 as the radioligand (used at 0.1 nM) and The Packard Unifilter assay plate. The assay buffer consisted of 50 mM TrisHCl (pH 7.8) with 1 mM EGTA, 5 mM MgCl2, leupeptin (10 μg/mL), pepstatin (10 μg/mL), bacitracin (200 μg/mL), and aprotinin (0.5 μg/mL). CHO-K1 cell membranes, radiolabeled somatostatin, and unlabeled test compounds were resuspended or diluted in this assay buffer. Unlabeled test compounds were examined over a range of concentrations from 0.01 nM to 10,000 nM. The Ki values for compounds were determined as described by Cheng and Prusoff Biochem Pharmacol. 22:3099-3108 (1973).

T1 sequence (P35346 whole entry): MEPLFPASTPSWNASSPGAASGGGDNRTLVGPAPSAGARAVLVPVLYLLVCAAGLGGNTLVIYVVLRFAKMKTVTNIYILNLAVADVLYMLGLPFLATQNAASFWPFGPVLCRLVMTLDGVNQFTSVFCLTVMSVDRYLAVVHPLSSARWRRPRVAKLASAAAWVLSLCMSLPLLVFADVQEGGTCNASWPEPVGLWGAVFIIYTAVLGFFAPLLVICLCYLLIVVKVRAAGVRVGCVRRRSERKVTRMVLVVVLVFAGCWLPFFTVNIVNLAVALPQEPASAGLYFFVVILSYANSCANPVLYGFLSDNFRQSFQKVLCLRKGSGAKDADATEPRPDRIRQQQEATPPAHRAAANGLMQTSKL

Structure (SMILES)	IC50 [1] [nM]	IC50 [2] [nM]
CCOc1cc(CN2CCC3(CC2)CC(c2ccc(C(=O)O)cc2)=NO3)ccc1Cl [Example 12, 4-[8-(4-Chloro-3-ethoxybenzyl)-1-oxa-2,8-diazaspiro[4.5]dec-2-en-3-yl]benzoic acid]	1.3	7.5
CC(C)Oc1ccc(-c2ccc(F)c(F)c2)c(CN2CCC3(CC2)CC(c2ccc(C(=O)O)cc2)=NO3)c1 [Example 13, 4-(8-{[3′,4′-Difluoro-4-(propan-2-yloxy)biphenyl-2-yl]methyl}-1-oxa-2,8-diazaspiro[4.5]dec-2-en-3-yl)benzoic acid]	2.9	2.9
CCOc1cc(CN2CCC3(CC2)CC(c2ccc(C(=O)O)cc2)=NO3)ccc1-c1nccs1 [Example 18, 4-{8-[3-Ethoxy-4-(1,3-thiazol-2-yl)benzyl]-1-oxa-2,8-diazaspiro[4.5]dec-2-en-3-yl}benzoic acid]	11	12
CCOc1cc(CN2CCC3(CC2)CC(c2ccc(C(=O)O)cc2)=NO3)c(-c2nccs2)cc1C [Example 19, 4-{8-[5-Ethoxy-4-methyl-2-(1,3-thiazol-2-yl)benzyl]-1-oxa-2,8-diazaspiro[4.5]dec-2-en-3-yl}benzoic acid]	0.94	1.5
CC(C)(C)n1cc(CN2CCC3(CC2)CC(c2ccc(C(=O)O)cc2)=NO3)c(-c2ccc(F)c(Cl)c2)n1 [Example 24]	1.8	2.3
CCOc1cc(CN2CCC3(CC2)CC(c2ccc(C(=O)O)cn2)=NO3)cc(OCC)c1-c1ccc(F)cc1 [Example 25, 6-{8-[(2,6-Diethoxy-4′-fluorobiphenyl-4-yl)methyl]-1-oxa-2,8-diazaspiro[4.5]dec-2-en-3-yl}pyridine-3-carboxylic acid]	2.6	1.2
CCOc1cc(CN2CCC3(CC2)CC(c2ccc(C(=O)O)cc2)=NO3)c(-c2ccc(F)nc2)cc1C [Example 26, 4-{8-[5-Ethoxy-2-(6-fluoropyridin-3-yl)-4-methylbenzyl]-1-oxa-2,8-diazaspiro[4.5]dec-2-en-3-yl}benzoic acid]	0.32	0.33
CC(C)(C)n1cc(CN2CCC3(CC2)CC(c2ccc(C(=O)O)cn2)=NO3)c(-c2ccc(F)c(Cl)c2)n1 [Example 27, 6-(8-{(1-tert-Butyl-3-(3-chloro-4-fluorophenyl)-1H-pyrazol-4-yl]methyl}-1-oxa-2,8-diazaspiro[4.5]dec-2-en-3-yl)pyridine-3-carboxylic acid]	8.8	10
CCOc1cc(CN2CCC3(CC2)CC(c2ccc(C(=O)O)cn2)=NO3)c(-c2ccc(F)c(F)c2F)cc1C [Example 29, 6-{8-[(4-Ethoxy-2′,3′,4′-trifluoro-5-methylbiphenyl-2-yl)methyl]-1-oxa-2,8-diazaspiro[4.5]dec-2-en-3-yl}pyridine-3-carboxylic acid]	5.6	0.99
CCOc1ccc(-c2ccc(F)c(F)c2F)c(CN2CCC3(CC2)CC(c2ccc(C(=O)O)cn2)=NO3)c1 [Example 30, 6-{8-[(4-Ethoxy-2′,3′,4′-trifluorobiphenyl-2-yl)methyl]-1-oxa-2,8-diazaspiro[4.5]dec-2-en-3-yl}pyridine-3-carboxylic acid]	0.76	0.41
